Assay [1] has as its system scopolamine induced deficit (dementia/amnesia) in mice. The assay can be described thus: Single trial passive avoidance test, scopolamine induced amnesia. The format is in vivo. The note with it: Mus musculus, 24 h. As for the experimental part:
Single trial passive avoidance is widely used as experimental test to assess learning memory functions in rodents. […] Passive Avoidance Test (in vivo): Study was conducted in adult Swiss male mice of 3-4 months (wt. 20-25 g) which were kept in standard housing condition with 12h light and dark cycle. Food and water were available ad libitum. […] Passive avoidance test was studied by a computerized shuttle box (Columbus Instruments, Ohio, USA) provided with a software program PACS 30. The shuttle box comprises of two compartments, isolated by an automated door. […] Each mouse was placed in the bright compartment and on transfer into the dark compartment it was given an electric shock (0.5 mA for 5 s) through floor grid. Transfer of mice from bright to dark compartment was recorded as transfer latency time (TLT) in seconds. TLT was recorded in control and treated groups (1st Trial, acquisition) and then after 24 hours (2nd Trial, retention). An increase in the TLT on 2nd Trial (retention) as compared to 1st Trial (acquisition) was taken as the criterion for successful learning and memory (cognitive activity). Scopolamine induced deficit (Dementia): Scopolamine a muscarinic antagonist, known to produce impairment in cognitive functions (dementia) in human as well as in experimental animals, was used to produce deficit (no significant increase on 2nd trial) in passive avoidance learning. Scopolamine was administered 5 min prior to 1st trial. Reversal of scopolamine induced deficit i.e. significant increase in 2nd trial by test substance indicates potential anti-dementia activity. […]. Drug administration: Scopolamine was administered 5 min prior to 1st trial in test group. Each test compound was administered orally in dose of 20µmol/kg (1% aq. suspension in gum acacia) 1 hour prior to 2nd trial in scopolamine treated mice (n=5). Scopolamine control group received 1 ml/kg of vehicle (1% aq. suspension in gum acacia) orally. Scopolamine was administered 5 min prior to 1st trial in test group. […] Donepezil (10 mg/kg, po, as1% aqueous suspension in gum acacia) was used as standard drug and given 1 hour prior to 2nd trial in scopolamine treated mice. Statistical analysis: Mean values and standard error (S.E.) of mean were calculated for TLT and specific activity of AChE in the different regions of brain samples of each group. The significance of difference between the values of AChE activity and TLT between the groups was determined by one-way ANOVA test that followed by Dunnett's test. Table 4: Effect of the compounds on scopolamine induced amnesia in passive avoidance test

Another assay concerns the target T1, Acetylcholinesterase (Rattus norvegicus, UniProt P37136).
T1 construct: Aliquots of this supernatant was diluted in the ratio of 1:10 and used as a source of enzyme for the assay; from tissue; host or cells: whole brain of adult SD male rats; 10% homogenate with 1% Triton X-100, 100,000 x g supernatant
T1 sequence (P37136 32-614): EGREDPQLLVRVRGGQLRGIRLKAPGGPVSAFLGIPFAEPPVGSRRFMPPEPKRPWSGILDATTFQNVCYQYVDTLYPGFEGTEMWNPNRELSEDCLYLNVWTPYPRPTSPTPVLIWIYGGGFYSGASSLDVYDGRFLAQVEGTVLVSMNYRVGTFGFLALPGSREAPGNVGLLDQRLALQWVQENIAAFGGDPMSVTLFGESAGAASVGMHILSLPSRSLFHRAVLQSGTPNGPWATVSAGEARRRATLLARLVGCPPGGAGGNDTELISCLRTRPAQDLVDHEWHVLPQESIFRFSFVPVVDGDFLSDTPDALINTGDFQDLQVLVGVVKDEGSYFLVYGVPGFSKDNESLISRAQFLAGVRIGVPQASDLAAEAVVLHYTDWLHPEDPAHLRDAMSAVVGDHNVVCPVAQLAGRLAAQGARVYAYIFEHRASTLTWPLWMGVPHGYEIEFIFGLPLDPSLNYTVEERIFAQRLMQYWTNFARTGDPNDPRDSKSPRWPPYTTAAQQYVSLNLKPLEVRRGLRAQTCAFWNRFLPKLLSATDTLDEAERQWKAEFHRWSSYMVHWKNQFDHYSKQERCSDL
The assay can be described thus: Inhibitive effect on acetylcholinesterase activity (Ellman assay, rat brain homogenate supernatant). The format is biochemical, rats. The note with it: for % Cholinesterase Enzyme Activity: Control AChE activity = 0.014446 (µmol / mg of protein/min). As for the experimental part: The study was conducted in adult SD male rats (200-250 g). Rats were perfused under mild ether anesthesia through heart with ice cooled normal saline (0.9% NaCl) to reduce blood-borne cholinesterase from brain. After perfusion whole brain was taken out. 10% (w/v) homogenate of brain was prepared first by homogenizing in Ultra-Turrax T25 homogenizer at a speed of 9500 rpm thrice giving intervals for few seconds in between the runs, with sodium phosphate buffer (30 mmol/lit, pH 7.0). Sodium phosphate buffer was taken in a volume half to the final volume required for 10% homogenate. 1% Triton X-100 (1% w/v in 30 mmol/lit. sodium phosphate buffer, pH 7.0) is then added in a volume to make the final volume for 10% homogenate, slowly while stirring the homogenate on ice.
Kinetic profile of the enzyme activity was studied spectrophotometrically at 412 nm at an interval of 15 s. Assay for each sample was run in duplicate and each experiment was performed thrice.
The specific activity of AChE is expressed in µmoles/min/mg of protein.
[…] Tacrine (1µmol) was used as standard AChE inhibitor (standard control). The AChE inhibitory activity was calculated on the basis of % decrease change from control values i.e. AChE acivity without incubation with any standard or test drug.
Bovine serum albumin (BSA) was used as standard in the concentration of 1 mg/ml. was estimated in the range of 0.01-0. mg/ml.
On the technique in general: DTNB colorimetry detects thiols as they appear.

Where [2] appears, read: % Learning in treated gp - % Learning in Scopolamine gp, test compound orally 20µmol/kg, Donepezil 10 mg/kg po, read-out: % Improvement in Learning.
Where [3] appears, read: [2nd Trial - 1st trial/1st trial] x 100, scopolamine treated mice, test compound orally 20µmol/kg, Donepezil 10 mg/kg po, read-out: % Learning.

SMILES strings stand for the structures. pIC50: −log10 of the molar value. Read-outs that look alike come from different tables or passages of the source.

`CCCCCCCNC(=O)Oc1ccc2ncccc2c1` [1b, heptyl-carbamic acid quinolin-6-yl ester]: the values for the change in vivo at 20 µmol/kg in assay [1] (setting [2]) and in assay [1] (setting [3]) were 107% and 140%, respectively.

In the case of `O=C(Nc1ccccc1Cl)Oc1ccc2ncccc2c1` [1c, (2-chloro-phenyl)-carbamic acid quinolin-6-yl ester], the change in vivo at 20 µmol/kg worked out at 123% in assay [1] (setting [2]) and 157% in assay [1] (setting [3]).

Consider `O=C(Nc1cccc(Br)c1)Oc1ccc2c(c1)CCCN2` [2c, (3-bromo-phenyl)-carbamic acid 1,2,3,4-tetrahydro-quinolin-6-yl ester], for which the change in vivo at 20 µmol/kg in assay [1] (setting [2]) stood at 67.4%; in assay [1] (setting [3]) it was 101%.

As to `CCCCCCNC(=O)Oc1ccc2c(c1)CCCN2Cc1ccccc1` [2h, hexyl-carbamic acid 1-benzyl-1,2,3,4-tetrahydro-quinolin-6-yl ester], the change in vivo at 20 µmol/kg in assay [1] (setting [2]) was 89.2%; in assay [1] (setting [3]), 123%.

Broadly, the pIC50 is the negative decadic logarithm of the IC50, by convention in mol/L. Take `O=C(Nc1ccccc1Cl)Oc1ccc2c(c1)CCCN2Cc1ccccc1` [2i, (2-chloro-phenyl)-carbamic acid 1-benzyl-1,2,3,4-tetrahydro-quinolin-6-yl ester]: the change in vivo at 20 µmol/kg in assay [1] (setting [2]) worked out at 89.6%; in assay [1] (setting [3]) it was 123%. The same compound gave a pIC50 at Acetylcholinesterase of 5.48. Also, the “% Anticholinesterase Enzyme Inhibition” value on Acetylcholinesterase (Conc. 0.1 µm) was found to be 6.45%; on Acetylcholinesterase (Conc. 0.3 µm) it was 16.12%; at Acetylcholinesterase (Conc. 1 µm) it was 25.80%; at Acetylcholinesterase (Conc. 3 µm) it was 48.38%; on Acetylcholinesterase (Conc. 10 µm) it was 87.09%. Further, the “Cholinesterase Enzyme Activity” value on Acetylcholinesterase (Conc. 0.1 µm) was 0.01351 µmol / mg of protein/min; at Acetylcholinesterase (Conc. 0.3 µm) it was 0.01211 µmol / mg of protein/min; at Acetylcholinesterase (Conc. 1 µm) it was 0.01071 µmol / mg of protein/min; at Acetylcholinesterase (Conc. 3 µm) it was 0.007456 µmol / mg of protein/min; at Acetylcholinesterase (Conc. 10 µm), 0.001864 µmol / mg of protein/min. Besides, the “% Cholinesterase Enzyme Activity” value on Acetylcholinesterase (Conc. 0.1 µm) amounted to 93.54%; on Acetylcholinesterase (Conc. 0.3 µm), 83.87%; at Acetylcholinesterase (Conc. 1 µm) it was 74.19%; at Acetylcholinesterase (Conc. 3 µm), 51.61%; at Acetylcholinesterase (Conc. 10 µm), 12.90%.

As to `CN1CCCc2cc(OC(=O)Nc3ccc(Cl)c(C(F)(F)F)c3)ccc21` [2q, (4-chloro-3-trifluoromethyl-phenyl)-carbamic acid 1-methyl-1,2,3,4-tetrahydro-quinolin-6-yl ester], the change in vivo at 20 µmol/kg is 76% in assay [1] (setting [2]) and 109% in assay [1] (setting [3]).

With `CN1CCCc2cc(OC(=O)Nc3ccc(Br)cc3)ccc21` [2r, (4-bromo-phenyl)-carbamic acid 1-methyl-1,2,3,4-tetrahydro-quinolin-6-yl ester], the change in vivo at 20 µmol/kg in assay [1] (po, read-out: % Improvement in Learning) stood at 62%; in assay [1] (po, read-out: % Learning), 95.6%.

Regarding `COc1cc2c(cc1OC)C(=O)C(CC1CCN(Cc3ccccc3)CC1)C2` (centres unmarked) [DONEPEZIL, donepezil, reference compound], the change in vivo at 20 µmol/kg in assay [1] (setting [2]) is 134%; in assay [1] (setting [3]) it was 168%.
